Data as given in PMC4627230, “Identification of TAX2 peptide as a new unpredicted anti-cancer agent” (Oncotarget, 2015).

How the values were obtained:
[1] = tested on: MIA PaCa-2 xenograft in BALB/C nu/nu mice; assay: MIA PaCa-2 human pancreatic carcinoma xenograft growth; type: in vivo, human tumor xenograft in mouse
Experimental: For the subcutaneous melanoma tumor model, suspensions of B16F1 cells (2.5 × 10^5 cells in 100 μL RPMI-1640 medium) were subcutaneously injected into the left flank of different randomized series of syngeneic C57BL/6 mice (n = 8–10 per group), as previously described. Intraperitoneal administrations of peptide (10 mg/kg mouse weight) or controls (physiological serum 0.9% (w/v) NaCl or a scrambled peptide) were performed at days 3, 5 and 7. In human pancreatic carcinoma xenograft experiments, 3 × 10^6 MIA PaCa-2 cells/mouse were implanted subcutaneously into the left flank of BALB/C athymic nude mice, then TAX2 intraperitoneal treatments (10 mg/kg mouse weight) were performed 3 times a week during 4 weeks starting at day 10 after tumor cells inoculation. Tumor volume was determined according to v = 0.5 A × B^2, where A denotes the largest dimension of the tumor and B represents the smallest dimension. At days indicated, mice were sacrificed and tumors were surgically extracted and fixed in 4% paraformaldehyde for further morphologic studies and for magnetic resonance imaging, or frozen for immunohistochemistry. Mice were also weighed every 2–3 days and daily checked for any modification in their behavior. Loss of 15% body weight was an indication for euthanasia as well as severe tumor necrosis, as it was sometimes associated with skin ulceration that would result in loss of body fluid and/or infection.

[2] = tested on: immobilized TSP-1 (thrombospondin from human platelets); assay: ELISA binding of biotin-labeled peptides to immobilized TSP-1; conditions: biotin-labeled peptide 10 μg/mL, 3 h, room temperature, 0.5% BSA; absorbance 450 nm; n = 3 in triplicate
Experimental: Microtiter plates (Nunc, ThermoFisher Scientific, Courtaboeuf, France) were coated overnight at 4°C with 0.5 μg TSP-1 in sodium carbonate-bicarbonate (BupH) buffer (Thermo Fisher Scientific). Plates were washed with PBS 0.1% BSA (Sigma-Aldrich) and non-specific sites were saturated during 30 min using 1% (w/v) BSA in BupH buffer. Biotin-labeled peptide (10 μg/mL, determined after dose-response assay from 0.01 to 100 μg/mL) was added in buffer containing 0.5% (w/v) BSA and incubated for 3 h at room temperature. Non-labeled peptide (0.001 to 5 mg/mL) was used as selective competitor. Plates were washed with PBS containing 0.1% (w/v) BSA and treated for 30 min with mouse anti-biotin antibody. Bound antibody was quantified using the mouse IgG Elite Vectastain ABC kit (Vector Laboratories) followed by incubation with 1-Step Turbo TMB substrate as a chromogen (ThermoFisher Scientific). The reaction was stopped with 0.5 M H2SO4 and absorbance was read at 450 nm.

[3] = tested on: cGMP production by endothelial cells (HUVECs); assay: Intracellular cGMP after NO stimulation; type: cell-based, human; conditions: 100 μM for 15 min, then 10 μM DEA-NONOate 10 min, 1 mM IBMX, n = 3 in triplicate, p < 0.05
Experimental: HUVECs (1 × 10^4 per well) were grown over 24 h in 96-well plates containing EGM-2 full growth medium and then serum-starved in EBM-2 containing 0.1% (v/v) BSA over additional 24 h. Cells were then pre-treated during 15 min with 100 μM TAX2 in EBM-2 without additives plus 0.1% (v/v) BSA before treatment with NO donor in presence of 1 mM IBMX as a phosphodiesterases inhibitor. After 10 min, intracellular cGMP levels were determined according to the manufacturer's instructions using an enzyme immunoassay kit (Amersham Biosciences).
Supplementary Figure S2: TAX2 inhibits intracellular cGMP production by endothelial cells under NO stimulation. HUVECs (1 × 10^4 per well) were seeded in 96-well plates, maintained in EGM-2 growth medium for 24 h, and then serum-starved for an additional 24 h in EBM-2 containing 0.1% (v/v) BSA. Endothelial cells were then pre-treated with 100 μM TAX2 for 15 min before addition of 10 μM DEA-NONOate. After 10 min, intracellular cGMP was quantified as described in Material & Methods. Results are expressed as percent compared to control (n = 3, each performed in triplicate; t test; * p < 0.05).
(also on this page, place not known: www.impactjournals.com/oncotarget/ Oncotarget, Materials 2015 Supplementary *p) […]

“CEVSQLLKGDAC (disulfide) [TAX2, CD47-derived cyclic disulfide dodecapeptide …]” was tested, and the xenograft growth delay ([1]; 10 mg/kg i.p. 3 times a week for 4 weeks from day 10) was “strong delay”, the “decrease of tumor volume at day 38” value ([1]; 10 mg/kg i.p. 3 times a week for 4 weeks from day 10, n = 9, p < 0.05) was 2 fold and the “tumor volume at day 24, xenograft” value ([1]; 10 mg/kg i.p. 3 times a week from day 10, n = 15) was “no differences in measured tumor volume were observed”. The “inhibition rate compared to 5 mg/kg bevacizumab twice weekly i.p.” value ([1]; MIA PaCa-2 xenograft, bevacizumab data from ref [56]) was “higher inhibition rates”, the “binding to immobilized TSP-1” value [2] was “binds to immobilized TSP-1” and the “decrease of cGMP production after NO stimulation” value [3] was “around 25%”.
